Assay results reported in article PMC9658586, “1,4-Naphthoquinone Motif in the Synthesis of New Thiopyrano[2,3-d]thiazoles as Potential Biologically Active Compounds” (Molecules, 2022).
pIC50: −log10 of the molar value. Where two headings read alike, the source gives them in different places.

Columns and labels:
MDA-MB-435/Melanoma = experiment: NCI single-dose screen, MDA-MB-435; assay type: cell-based, human; details: 10 μM, 48 h
Method: (§1) Considering the results of previous studies of fused thiazolidinones and their analogs, a series of thiopyrano[2,3-d]thiazoles with naphthoquinone fragments in the structure were studied for their anticancer activity. Thus, synthesized thiopyranothiazole derivatives 3.5 and 3.6 were selected by the National Cancer Institute (NCI), U.S., for their anticancer activity at 10 μM concentration toward a panel of sixty cancer cell lines representing nine different types (leukemia, melanoma, lung, colon, CNS, ovarian, renal, prostate, and breast cancers) (Figures S13–S14). Selection for screening based on new derivatives’ ability to add diversity to the NCI small molecules collection and anticancer assays were performed according to the NCI guidelines and protocols previously described. The compounds were added at the mentioned concentration, and the cell cultures were incubated for 48 h. The results for each compound were reported as the growth percent (GP%) of treated cells compared with untreated control cells.
(§2) Anticancer in vitro assay was performed on the human tumor cell lines panel derived from nine neoplastic diseases by the protocol of the Drug Evaluation Branch, National Cancer Institute, Bethesda, MD, USA [44, 45, 46]. […] GP% was spectrophotometrically evaluated vs. controls not treated with test agents.

[1] = test system: Human colon carcinoma HCT116 p53-/- cells; experiment: MTT cell viability assay, HCT116 p53-/-; assay type: cell-based; details: for pIC50: Homo sapiens, read-out: IC50, HCT116 p53-/-
Method: (§3) The MTT cell viability assay was performed 72 h after cells treatment with various concentrations of studied compounds and doxorubicin, a reference drug. […] It is known that ABCB1 (P-glycoprotein), MRP1/ABCC1 (multidrug resistance protein 1), and BCRP/BCG2 (breast cancer resistance protein) have been reported to be key players in resistance to chemotherapy. […] The p53 has diverse mutations in almost all human tumors, stimulating their hyper-proliferation, invasion/metastasis, and thus, influencing the potency of various chemotherapeutics (i.e., platins and anti-metabolites).
(§4) Human colon carcinoma HCT116 cells, human breast adenocarcinoma cells of MCF-7 line, human T-leukemia Jurkat cells, human chronic myelogenous leukemia K562 cells, and human keratinocytes of HaCaT line were from the Cell Collection of R.E. Kavetsky Institute of Experimental Pathology, Oncology and Radiobiology (Kyiv, Ukraine). Murine macrophages of J774.2 line were a generous gift from Professor Sir John Vane (William Harvey Research Institute, London, UK) via Professor Janusz Marcinkiewicz (Jagiellonian University Medical College, Krakow, Poland). Human colon carcinoma HCT116 p53-/- cells with knockdown of P53 gene, as well as human epidermoid cervix carcinoma KB3-1 cells and its ABCB1-overexpressing subline KBC-1, were kindly provided by Professor W. Berger (Institute of Cancer Research, Medical University of Vienna, Austria). […] Human leukemia monocytic THP-1 cells were kindly provided by Professor M. Herrmann (Department of Internal Medicine, Institute for Clinical Immunology and Rheumatology, University of Erlangen-Nuremberg, Germany). Cells were cultured in DMEM or RPMI-1640 medium supplemented with 10% fetal bovine serum (all were purchased from Biowest, Nuaille, France) at 37 °C in a humidified atmosphere containing 5% CO2.
(§5) MTT assay was used to examine the viability of tumor and pseudo-normal cells after their treatment with studied thiopyrano[2,3-d]thiazole derivatives and doxorubicin (Actavis S.R.L., Bucharest, Romania). Cells were seeded in 96-well plates at a density of 3–5 × 103. After 24 h, cells were treated with compound […], 1,4-NQ (0.1–100 µM), and doxorubicin (0.1–100 µM). After incubation for 72 h, MTT reagent (Sigma-Aldrich, St. Louis, MO, USA) was added to each well, according to the Sigma-Aldrich protocol. An absorbance Reader BioTek ELx800 (BioTek Instruments, Inc., Winooski, VT, USA) was used to measure the reaction product.

[2] = test system: human chronic myelogenous leukemia K562 cells; experiment: MTT cell viability assay, K562; assay type: cell-based; details: Homo sapiens, K562, 72 h
Method: as §3, §4, §5

[3] = test system: human epidermoid cervix carcinoma KB3-1 cells; experiment: MTT cell viability assay, KB3-1; assay type: cell-based; details: Homo sapiens, KB 3-1, 72 h
Method: as §3, §4, §5

[4] = test system: SNB-75/ Central Nervous System Cancer; experiment: NCI single-dose screen, SNB-75; assay type: cell-based, human; details: 10 μM, 48 h
Method: as §1, §2

[5] = test system: human breast adenocarcinoma cells of MCF-7 line; experiment: MTT cell viability assay, MCF-7; assay type: cell-based; details: Homo sapiens, MCF7, 72 h
Method: as §3, §4, §5

KB3-1 cells = experiment: Fluorescence microscopy of cells, Hoechst-33342 staining; assay type: cell-based, human; details: 1 µM, 24 h
Method: One can also see giant KB3-1 cells with abnormal nuclei and looser chromatin (Figure 7B). The mitotic catastrophe may occur during or after aberrant mitosis. Mitotic catastrophe has been reported as a special example of apoptosis affecting mitochondrial membrane permeabilization and caspase activation. […] Thus, compound 3.6 induced pro-apoptotic cytomorphological changes in treated KB3-1 cells.
The KB3-1 cells were seeded in 24-well plates at 5 × 10^5/mL and then treated for an additional 24 h with compound […] (1 μM) and doxorubicin (1 μM). Cells were stained with 0.2–0.5 µg/mL of Hoechst-33342 and incubated for 20–30 min before the cell examination. A Zeiss fluorescent microscope (Carl Zeiss, Jena, Germany), AxioImager A1 camera (at 400× magnification), and AxioVision image analysis software Release 4.6.3.0 for Carl Zeis microscopy (Imaging Associates Ltd., Cork, Ireland, UK) were used for cells examination. All microphotographs were additionally analyzed using ImagePro7 software (Media Cybernetics, Rockville, MD, USA).

A498/ Renal Cancer = experiment: NCI single-dose screen, A498; assay type: cell-based, human; details: 10 μM, 48 h
Method: as §1, §2

[6] = test system: panel of sixty cancer cell lines; experiment: NCI single-dose (10 μM) anticancer screen, sulforhodamine B, 60-cell-line panel; assay type: cell-based, human; details: 48 h; for Mean Growth, %: growth percent vs untreated control, 60 cell lines; for Range of Growth, %: range over 60 cell lines
Method: as §1
Anticancer in vitro assay was performed on the human tumor cell lines panel derived from nine neoplastic diseases by the protocol of the Drug Evaluation Branch, National Cancer Institute, Bethesda, MD, USA [44, 45, 46]. Tested compounds were added to the culture at a single concentration (10^−5 M), and the cultures were incubated for 48 h. Endpoint determinations were made with a protein binding dye, sulforhodamine B. Results for each tested compound were reported as the GP% of the treated cells compared to untreated control cells. GP% was spectrophotometrically evaluated vs. controls not treated with test agents.

[7] = test system: Human colon carcinoma HCT116 cells (HCT116wt); experiment: MTT cell viability assay, HCT116wt; assay type: cell-based; details: Homo sapiens, HCT-116, 72 h
Method: as §3, §4, §5

COLO-205/ Colon Cancer = experiment: NCI single-dose screen, COLO-205; assay type: cell-based, human; details: 10 μM, 48 h
Method: as §1, §2

[8] = test system: Murine macrophages of J774.2 line; experiment: MTT cell viability assay, J774.2; assay type: cell-based; details: pseudo-normal murine macrophages
Method: as §3, §4, §5

MCF7/Breast Cancer = experiment: NCI single-dose screen, MCF7; assay type: cell-based, human; details: 10 μM, 48 h
Method: as §1, §2

Row | pIC50 ([1]; HCT-116, MTT, 72 h) | Structure (SMILES) | Most Sensitive Cell Line Growth, % (MDA-MB-435/Melanoma) (MDA-MB-435/Melanoma) [%] | pIC50 ([1]; HCT-116, 72 h) | pIC50 [2] | pIC50 [3] | Most Sensitive Cell Line Growth, % (SNB-75/ Central Nervous System Cancer) [4] [%] | pIC50 [5] | cytomorphological alterations (KB3-1 cells) | Most Sensitive Cell Line Growth, % (A498/ Renal Cancer) (A498/ Renal Cancer) [%] | Mean Growth, % [6] [%] | Range of Growth, % [6] [%] | pIC50 [7] | Most Sensitive Cell Line Growth, % (COLO-205/ Colon Cancer) (COLO-205/ Colon Cancer) [%] | pIC50 ([8]; 72 h, listed as Dox) | pIC50 ([8]; Mus musculus, J774.2, 72 h) | cytotoxic action on p53-deficient colon carcinoma cells relative to HCT116wt ([1]; HCT116 p53-/- vs HCT116wt) | Most Sensitive Cell Line Growth, % (MCF7/Breast Cancer) (MCF7/Breast Cancer) [%]
1 |  | COc1cccc2c1C(=O)c1c(O)c3c(c(O)c1C2=O)C[C@@](O)(C(=O)CO)C[C@@H]3O[C@H]1C[C@H](N)[C@H](O)[C@H](C)O1 [Doxorubicin, doxorubicin, reference compound] | −82.60 | 6.24 | 6.21 | 6.14 | −76.10 | 6.20 | chromatin condensation and membrane blabbing | −75.10 | −20.30 | −86.40 to 72.90 | 7.15 | −81.60 | 6.01 | 6.00 to 6.10 |  | 
2 | 4.91 | O=C1C2=C(C(=O)c3ccccc31)C(CCc1ccccc1)c1sc(=O)[nH]c1S2 (centres unmarked) [Compound 3.6, 11-Phenethyl-3,11-dihydro-2H-benzo[6,7]thiochromeno[2,3-d]thiazole-2,5,10-trione] | 52.87 |  | 4.59 | 4.56 |  | 5.05 | shrunk, with condensed chromatin and membrane blabbing |  | 90.58 | 45.25 to 130.11 | 5.20 |  |  | 5.02 | two times weaker | 58.83
